This passage reports IC50 results from US20250019387A1 (Frontier Medicines Corporation, priority 0001, published 2025).

A value given as a limit tells only on which side of the number the result lay.

Sequence of KRAS G12C and cRAF (Ras-binding domain) interaction (P01116 other isoform, or with tags, fused parts or gaps G12C/C51S/C80L/C118S): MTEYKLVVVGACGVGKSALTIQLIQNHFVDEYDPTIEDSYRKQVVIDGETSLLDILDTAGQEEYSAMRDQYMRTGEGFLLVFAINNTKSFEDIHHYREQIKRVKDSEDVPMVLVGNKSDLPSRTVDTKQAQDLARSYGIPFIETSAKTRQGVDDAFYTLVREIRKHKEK

This assay concerns the target KRAS G12C and cRAF (Ras-binding domain) interaction (Homo sapiens (Human), UniProt P01116, C118S/C51S/C80L/G12C). The experiment in a line: Inhibition of KRAS G12C and cRAF binding (AlphaScreen). The conditions noted are these: GMPPNP-loaded KRAS G12C, 19-20 hours incubation with compound; read-out: IC50 (Inhibition of KRAS G12C and cRAF Binding). The method, boiled down: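 IC50 values come from 4-parameter nonlinear regression of AlphaScreen signal (680 nm excitation, 570 nm emission). Compound plates sat 19-20 h at room temperature before RBD and donor/acceptor beads were added in Hepes pH 7.4 buffer with 150 mM NaCl, 5 mM MgCl2, 2% DMSO for 60-90 min; biotin-AviTag-GST replaced RBD to flag assay-technology interferers.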
For `CN1CCC(C#CC(=O)N2CC[C@@H](N(C)c3nc(OC[C@@]45CCCN4C[C@H](F)C5)nc4c(F)c(-c5cccc6cccc(Cl)c56)ncc34)C2)C1` (stereo partly drawn) [Example 65, 1-((R)-3-((7-(8-chloronaphthalen-1-yl)-8-fluoro-2-(((2R,7aS)-2-fluorohexahydro-1H-pyrrolizin-7a-yl)methoxy)pyrido[4,3-d]pyrimidin-4-yl)(methyl)amino)pyrrolidin-1-yl)-3-(1-methylpyrrolidin-3-yl)prop-2-yn-1-one], the IC50 lay in the range of 0.01 to 0.1 µM.

`CN1CCCC1C#CC(=O)N1CC[C@@H](N(C)c2nc(OC[C@@]34CCCN3C[C@H](F)C4)nc3c(F)c(-c4cccc5cccc(Cl)c45)ncc23)C1` (stereo partly drawn) [Example 66, 1-((R)-3-((7-(8-chloronaphthalen-1-yl)-8-fluoro-2-(((2R,7aS)-2-fluorotetrahydro-1H-pyrrolizin-7a(5H)-yl)methoxy)pyrido[4,3-d]pyrimidin-4-yl)(methyl)amino)pyrrolidin-1-yl)-3-(1-methylpyrrolidin-2-yl)prop-2-yn-1-one]: the IC50 is 0.01 to 0.1 µM.

For `CN1CC(C#CC(=O)N2CC[C@@H](N(C)c3nc(OC[C@@]45CCCN4C[C@H](F)C5)nc4c(F)c(-c5cccc6cccc(Cl)c56)ncc34)C2)C1` [Example 67, 1-((R)-3-((7-(8-chloronaphthalen-1-yl)-8-fluoro-2-(((2R,7aS)-2-fluorohexahydro-1H-pyrrolizin-7a-yl)methoxy)pyrido[4,3-d]pyrimidin-4-yl)(methyl)amino)pyrrolidin-1-yl)-3-(1-methylazetidin-3-yl)prop-2-yn-1-one], the IC50 lay within 0.01 to 0.1 µM.

In the case of `Cc1nccc(/C=C/C(=O)N2CC(CN(C)c3nc(OC[C@@]45CCCN4C[C@H](F)C5)nc4c(F)c(-c5cccc6ccc(F)c(Cl)c56)ncc34)C2)n1` [Example 68, (E)-1-(3-(((7-(8-chloro-7-fluoronaphthalen-1-yl)-8-fluoro-2-(((2R,7aS)-2-fluorotetrahydro-1H-pyrrolizin-7a(5H)-yl)methoxy)pyrido[4,3-d]pyrimidin-4-yl)(methyl)amino)methyl)azetidin-1-yl)-3-(2-methylpyrimidin-4-yl)prop-2-en-1-one], the IC50 lay within 0.01 to 0.1 µM.

As to `Cc1nccc(/C=C/C(=O)N2CC(CN(C)c3nc(OC[C@@]45CCCN4C[C@H](F)C5)nc4c3CCN(c3cccc5cccc(Cl)c35)C4)C2)n1` [Example 69, (E)-1-(3-(((7-(8-chloronaphthalen-1-yl)-2-(((2R,7aS)-2-fluorohexahydro-1H-pyrrolizin-7a-yl)methoxy)-5,6,7,8-tetrahydropyrido[3,4-d]pyrimidin-4-yl)(methyl)amino)methyl)azetidin-1-yl)-3-(2-methylpyrimidin-4-yl)prop-2-en-1-one], the IC50 was 0.1 to 0.5 µM.

Regarding `CN(CC1CN(C(=O)/C=C/c2ccncn2)C1)c1nc(OC[C@@]23CCCN2C[C@H](F)C3)nc2c1CCN(c1cccc3cccc(Cl)c13)C2` [Example 70, (E)-1-(3-(((7-(8-chloronaphthalen-1-yl)-2-(((2R,7aS)-2-fluorohexahydro-1H-pyrrolizin-7a-yl)methoxy)-5,6,7,8-tetrahydropyrido[3,4-d]pyrimidin-4-yl)(methyl)amino)methyl)azetidin-1-yl)-3-(pyrimidin-4-yl)prop-2-en-1-one], the IC50 is 0.01 to 0.1 µM.

On to `Cc1nccc(/C=C/C(=O)N2CC[C@@H](N(C)c3nc(OC[C@@]45CCCN4C[C@H](F)C5)nc4c3CCN(c3cccc5cccc(Cl)c35)C4)C2)n1` [Example 71, (E)-1-((R)-3-((7-(8-chloronaphthalen-1-yl)-2-(((2R,7aS)-2-fluorohexahydro-1H-pyrrolizin-7a-yl)methoxy)-5,6,7,8-tetrahydropyrido[3,4-d]pyrimidin-4-yl)(methyl)amino)pyrrolidin-1-yl)-3-(2-methylpyrimidin-4-yl)prop-2-en-1-one], for which the IC50 was > 0.5 µM.

Turning to `Cc1nccc(/C=C/C(=O)N2CC[C@@H](N(C)c3nc(OC[C@@]45CCCN4C[C@H](F)C5)nc4c(F)c(-c5cccc6cccc(Cl)c56)ncc34)C2)n1` [Example 72, (E)-1-((R)-3-((7-(8-chloronaphthalen-1-yl)-8-fluoro-2-(((2R,7aS)-2-fluorotetrahydro-1H-pyrrolizin-7a(5H)-yl)methoxy)pyrido[4,3-d]pyrimidin-4-yl)(methyl)amino)pyrrolidin-1-yl)-3-(2-methylpyrimidin-4-yl)prop-2-en-1-one], the IC50 fell in the range of 0.1 to 0.5 µM.

In the case of `C=CC(=O)N1C[C@H](F)[C@@H](N(C)c2nc(OC[C@@]34CCCN3C[C@H](F)C4)nc3c(F)c(-c4cccc5cccc(Cl)c45)ncc23)C1` [Example 73, 1-((3S,4S)-3-((7-(8-chloronaphthalen-1-yl)-8-fluoro-2-(((2R,7aS)-2-fluorohexahydro-1H-pyrrolizin-7a-yl)methoxy)pyrido[4,3-d]pyrimidin-4-yl)(methyl)amino)-4-fluoropyrrolidin-1-yl)prop-2-en-1-one], the IC50 is 0.01 to 0.1 µM.

Regarding `Cc1nsc(/C=C/C(=O)N2CC(CN(C)c3nc(OC[C@@]45CCCN4C[C@H](F)C5)nc4c(F)c(-c5cccc6cccc(Cl)c56)ncc34)C2)n1` [Example 74, (E)-1-(3-(((7-(8-chloronaphthalen-1-yl)-8-fluoro-2-(((2R,7aS)-2-fluorotetrahydro-1H-pyrrolizin-7a(5H)-yl)methoxy)pyrido[4,3-d]pyrimidin-4-yl)(methyl)amino)methyl)azetidin-1-yl)-3-(3-methyl-1,2,4-thiadiazol-5-yl)prop-2-en-1-one], the IC50 was 0.1 to 0.5 µM.

As to `Cc1nsc(/C=C/C(=O)N2CC[C@@H](N(C)c3nc(OC[C@@]45CCCN4C[C@H](F)C5)nc4c(F)c(-c5cccc6cccc(Cl)c56)ncc34)C2)n1` [Example 75, (E)-1-((R)-3-((7-(8-chloronaphthalen-1-yl)-8-fluoro-2-(((2R,7aS)-2-fluorotetrahydro-1H-pyrrolizin-7a(5H)-yl)methoxy)pyrido[4,3-d]pyrimidin-4-yl)(methyl)amino)pyrrolidin-1-yl)-3-(3-methyl-1,2,4-thiadiazol-5-yl)prop-2-en-1-one], the IC50 was 0.01 to 0.1 µM.

On to `C[C@H](F)c1noc(/C=C/C(=O)N2CC(CN(C)c3nc(OC[C@@]45CCCN4C[C@H](F)C5)nc4c(F)c(-c5cccc6cccc(Cl)c56)ncc34)C2)n1` [Example 76, (E)-1-(3-(((7-(8-chloronaphthalen-1-yl)-8-fluoro-2-(((2R,7aS)-2-fluorotetrahydro-1H-pyrrolizin-7a(5H)-yl)methoxy)pyrido[4,3-d]pyrimidin-4-yl)(methyl)amino)methyl)azetidin-1-yl)-3-(3-((S)-1-fluoroethyl)-1,2,4-oxadiazol-5-yl)prop-2-en-1-one], for which the IC50 was < 0.01 µM.

Take `C[C@H](F)c1noc(/C=C/C(=O)N2CC[C@@H](N(C)c3nc(OC[C@@]45CCCN4C[C@H](F)C5)nc4c(F)c(-c5cccc6cccc(Cl)c56)ncc34)C2)n1` [Example 77, (E)-1-((R)-3-((7-(8-chloronaphthalen-1-yl)-8-fluoro-2-(((2R,7aS)-2-fluorohexahydro-1H-pyrrolizin-7a-yl)methoxy)pyrido[4,3-d]pyrimidin-4-yl)(methyl)amino)pyrrolidin-1-yl)-3-(3-((S)-1-fluoroethyl)-1,2,4-oxadiazol-5-yl)prop-2-en-1-one]: the IC50 was < 0.01 µM.

In the case of `CN(CC1CN(C(=O)/C=C/c2nc(C(C)(C)O)no2)C1)c1nc(OC[C@@]23CCCN2C[C@H](F)C3)nc2c(F)c(-c3cccc4ccc(F)c(Cl)c34)ncc12` [Example 78, (E)-1-(3-(((7-(8-chloro-7-fluoronaphthalen-1-yl)-8-fluoro-2-(((2R,7aS)-2-fluorotetrahydro-1H-pyrrolizin-7a(5H)-yl)methoxy)pyrido[4,3-d]pyrimidin-4-yl)(methyl)amino)methyl)azetidin-1-yl)-3-(3-(2-hydroxypropan-2-yl)-1,2,4-oxadiazol-5-yl)prop-2-en-1-one], the concentration for half-maximal inhibition (IC50) was < 0.01 µM.

Consider `CN(CC1CN(C(=O)/C=C/CN2CCOCC2)C1)c1nc(OC[C@@]23CCCN2C[C@H](F)C3)nc2c(F)c(-c3cccc4ccc(F)c(Cl)c34)ncc12` [Example 79, (E)-1-(3-(((7-(8-chloro-7-fluoronaphthalen-1-yl)-8-fluoro-2-(((2R,7aS)-2-fluorotetrahydro-1H-pyrrolizin-7a(5H)-yl)methoxy)pyrido[4,3-d]pyrimidin-4-yl)(methyl)amino)methyl)azetidin-1-yl)-4-morpholinobut-2-en-1-one], for which the IC50 fell in the range of 0.01 to 0.1 µM.

As for `C=CC(=O)N1CC[C@@H](N(C)c2nc(OC[C@]34CCCN3C[C@H](F)C4)nc3c(F)c(-c4cccc5ccc(F)c(Cl)c45)ncc23)C1` [Example 81, 1-((R)-3-((7-(8-chloro-7-fluoronaphthalen-1-yl)-8-fluoro-2-(((2R,7aR)-2-fluorotetrahydro-1H-pyrrolizin-7a(5H)-yl)methoxy)pyrido[4,3-d]pyrimidin-4-yl)(methyl)amino)pyrrolidin-1-yl)prop-2-en-1-one], the IC50 fell in the range of 0.01 to 0.1 µM.

For `C=CC(=O)N1CC[C@@H](N(C)c2nc(OC[C@@]34CCCN3C[C@H](F)C4)nc3c(F)c(-c4cc(OC(F)F)cc5cccc(Cl)c45)ncc23)C1` [Example 82, 1-((R)-3-((7-(8-chloro-3-(difluoromethoxy)naphthalen-1-yl)-8-fluoro-2-(((2R,7aS)-2-fluorotetrahydro-1H-pyrrolizin-7a(5H)-yl)methoxy)pyrido[4,3-d]pyrimidin-4-yl)(methyl)amino)pyrrolidin-1-yl)prop-2-en-1-one], the IC50 is > 0.5 µM.

With `C[C@@H](F)c1noc(/C=C/C(=O)N2CC(CN(C)c3nc(OC[C@@]45CCCN4C[C@H](F)C5)nc4c(F)c(-c5cccc6cccc(Cl)c56)ncc34)C2)n1` [Example 83, (E)-1-(3-(((7-(8-chloronaphthalen-1-yl)-8-fluoro-2-(((2R,7aS)-2-fluorotetrahydro-1H-pyrrolizin-7a(5H)-yl)methoxy)pyrido[4,3-d]pyrimidin-4-yl)(methyl)amino)methyl)azetidin-1-yl)-3-(3-((R)-1-fluoroethyl)-1,2,4-oxadiazol-5-yl)prop-2-en-1-one], the IC50 is < 0.01 µM.
